# Earlier results in patent EP3628310A1, “PHARMACEUTICAL COMPOSITION COMPRISING SOLID DISPERSIONS OF AMORPHOUS CLADRIBINE AND PHARMACEUTICALLY ACCEPTABLE WATER SOLUBLE CARRIER” (Synbias Pharma AG, priority 2018, dated 2020).
# Where two headings read alike, the source gives them in different places.
smiles,measurement,setting,value
"Nc1nc(Cl)nc2c1ncn2[C@H]1C[C@H](O)[C@@H](CO)O1 [Tablet 2-CdA, 2-chloro-2'-deoxyadenosine]",calculated half time T1/2,"pH 1, 37°C",22.2 min
same,2-CdA content,"pH 1, after 2 h of heating to 37°C",2%
same,2-CdA remains in solution,"pH 2, 37°, after 6 h",13%
same,calculated half time T1/2,"pH 2, 37°C",96 min
